From ChEMBL document CHEMBL4507263, “Data for DCP probe BAY-474” (2021)
Calls of active or inactive are those of the source. The rule behind the calls is not given here.

How the values were obtained:
[1] = target: Macrophage-stimulating protein receptor (Homo sapiens) (UniProt Q04912); details: Compound concentration 1000.0 nM
[2] = target: Dual serine/threonine and tyrosine protein kinase (Homo sapiens) (UniProt Q6XUX3); details: Compound concentration 1000.0 nM
[3] = target: Protein kinase C iota type (Homo sapiens) (UniProt P41743); details: Compound concentration 1000.0 nM
[4] = target: Mitogen-activated protein kinase kinase kinase 7 (Homo sapiens) (UniProt O43318); details: Compound concentration 1000.0 nM
[5] = target: Serine/threonine-protein kinase mTOR (Homo sapiens) (UniProt P42345); details: Compound concentration 1000.0 nM
[6] = system: Phosphatidylinositol 4,5-bisphosphate 3-kinase catalytic subunit alpha isoform (Homo sapiens), P42336 [I800L]; details: Compound concentration 1000.0 nM
[7] = target: Tyrosine-protein kinase Srms (Homo sapiens) (UniProt Q9H3Y6); details: Compound concentration 1000.0 nM
[8] = target: RAC-beta serine/threonine-protein kinase (Homo sapiens) (UniProt P31751); details: Compound concentration 1000.0 nM
[9] = target: Cyclin-dependent kinase 11B (Homo sapiens) (UniProt P21127); details: Compound concentration 1000.0 nM
[10] = target: Receptor-interacting serine/threonine-protein kinase 2 (Homo sapiens) (UniProt O43353); details: Compound concentration 1000.0 nM
[11] = target: Casein kinase I isoform gamma-3 (Homo sapiens) (UniProt Q9Y6M4); details: Compound concentration 1000.0 nM
[12] = target: cAMP-dependent protein kinase catalytic subunit beta (Homo sapiens) (UniProt P22694); details: Compound concentration 1000.0 nM
[13] = target: Fibroblast growth factor receptor 3 (Homo sapiens) (UniProt P22607); details: Compound concentration 1000.0 nM
[14] = target: Ephrin type-A receptor 1 (Homo sapiens) (UniProt P21709); details: Compound concentration 1000.0 nM
[15] = target: Serine/threonine-protein kinase Nek4 (Homo sapiens) (UniProt P51957); details: Compound concentration 1000.0 nM
[16] = target: NUAK family SNF1-like kinase 2 (Homo sapiens) (UniProt Q9H093); details: Compound concentration 1000.0 nM
[17] = target: Ribosomal protein S6 kinase beta-1 (Homo sapiens) (UniProt P23443); details: Compound concentration 1000.0 nM
[18] = target: Serine/threonine-protein kinase/endoribonuclease IRE1 (Homo sapiens) (UniProt O75460); details: Compound concentration 1000.0 nM
[19] = system: Mast/stem cell growth factor receptor Kit (Homo sapiens), P10721 [D816H]; details: Compound concentration 1000.0 nM
[20] = target: Serine/threonine-protein kinase Nek7 (Homo sapiens) (UniProt Q8TDX7); details: Compound concentration 1000.0 nM
[21] = target: Interleukin-1 receptor-associated kinase 3 (Homo sapiens) (UniProt Q9Y616); details: Compound concentration 1000.0 nM
[22] = target: Cyclin-dependent kinase 9 (Homo sapiens) (UniProt P50750); details: Compound concentration 1000.0 nM
[23] = target: Serine/threonine-protein kinase PAK 2 (Homo sapiens) (UniProt Q13177); details: Compound concentration 1000.0 nM
[24] = target: Dual specificity mitogen-activated protein kinase kinase 7 (Homo sapiens) (UniProt O14733); details: Compound concentration 1000.0 nM
[25] = target: Phosphatidylinositol 3-kinase C2 domain-containing subunit gamma (Homo sapiens) (UniProt O75747); details: Compound concentration 1000.0 nM
[26] = target: Ribosomal protein S6 kinase alpha-1 (Homo sapiens) (UniProt Q15418); details: Compound concentration 1000.0 nM
[27] = target: Serine/threonine-protein kinase Nek6 (Homo sapiens) (UniProt Q9HC98); details: Compound concentration 1000.0 nM
[28] = target: Mitogen-activated protein kinase kinase kinase kinase 2 (Homo sapiens) (UniProt Q12851); details: Compound concentration 1000.0 nM
[29] = target: Casein kinase II subunit alpha (Homo sapiens) (UniProt P68400); test: CK2 (h) Millipore kinase activity assay; details: Compound concentration 1.0 uM
[30] = target: Beta-1 adrenergic receptor (Homo sapiens) (UniProt P08588); details: Compound concentration 10.0 uM
[31] = target: CDK9/cyclin T1 (Homo sapiens) (UniProt O60563+P50750); test: CDK9/cyclin T1 (h) Millipore kinase activity assay; type: protein-complex assay; details: Compound concentration 1.0 uM
[32] = target: Platelet-activating factor receptor (Homo sapiens) (UniProt P25105); test: Inhibition of Platelet Activating Factor (PAF) at 10 µM in the Eurofins-Panlabs radioligand binding assay (Eurofins_assay_265010); details: Compound concentration 10.0 uM
[33] = target: Adenosine receptor A1 (Homo sapiens) (UniProt P30542); details: Compound concentration 10.0 uM
[34] = target: Serine/threonine-protein kinase SIK1 (Homo sapiens) (UniProt P57059); test: SIK (h) Millipore kinase activity assay; details: Compound concentration 1.0 uM
MKN-45 = test: Cell proliferation with […] cell line; type: functional; details: Homo sapiens
[35] = target: Serine/threonine-protein kinase Nek6 (Homo sapiens) (UniProt Q9HC98); test: NEK6 (h) Millipore kinase activity assay; details: Compound concentration 1.0 uM
[36] = target: Myosin light chain kinase (Homo sapiens) (UniProt Q32MK0); test: MLCK (h) Millipore kinase activity assay; details: Compound concentration 1.0 uM
[37] = target: Tyrosine-protein kinase ABL1 (Homo sapiens) (UniProt P00519); test: Abl (h) Millipore kinase activity assay; details: Compound concentration 1.0 uM
[38] = target: Serine/threonine-protein kinase 24 (Homo sapiens) (UniProt Q9Y6E0); test: MST3 (h) Millipore kinase activity assay; details: Compound concentration 1.0 uM
[39] = target: Mu-type opioid receptor (Homo sapiens) (UniProt P35372); details: Compound concentration 10.0 uM
[40] = target: G protein-coupled receptor kinase 6 (Homo sapiens) (UniProt P43250); test: GRK6 (h) Millipore kinase activity assay; details: Compound concentration 1.0 uM
[41] = target: Serine/threonine-protein kinase Sgk3 (Homo sapiens) (UniProt Q96BR1); test: SGK3 (h) Millipore kinase activity assay; details: Compound concentration 1.0 uM
[42] = target: Casein kinase I isoform gamma-1 (Homo sapiens) (UniProt Q9HCP0); test: CK1gamma1 (h) Millipore kinase activity assay; details: Compound concentration 1.0 uM

Sequence of Serine/threonine-protein kinase Nek6 (Homo sapiens) (Q9HC98 whole entry): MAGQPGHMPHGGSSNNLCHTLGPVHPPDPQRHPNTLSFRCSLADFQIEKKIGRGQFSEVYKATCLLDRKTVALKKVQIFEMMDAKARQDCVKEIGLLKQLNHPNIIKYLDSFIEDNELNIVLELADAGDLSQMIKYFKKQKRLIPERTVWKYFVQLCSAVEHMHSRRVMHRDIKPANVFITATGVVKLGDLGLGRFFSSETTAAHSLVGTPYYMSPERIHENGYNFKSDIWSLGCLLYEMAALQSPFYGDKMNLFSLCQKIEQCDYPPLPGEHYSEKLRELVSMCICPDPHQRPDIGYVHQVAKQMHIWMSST
Sequence of Phosphatidylinositol 3-kinase C2 domain-containing subunit gamma (Homo sapiens) (O75747 whole entry, the tested form may be a part): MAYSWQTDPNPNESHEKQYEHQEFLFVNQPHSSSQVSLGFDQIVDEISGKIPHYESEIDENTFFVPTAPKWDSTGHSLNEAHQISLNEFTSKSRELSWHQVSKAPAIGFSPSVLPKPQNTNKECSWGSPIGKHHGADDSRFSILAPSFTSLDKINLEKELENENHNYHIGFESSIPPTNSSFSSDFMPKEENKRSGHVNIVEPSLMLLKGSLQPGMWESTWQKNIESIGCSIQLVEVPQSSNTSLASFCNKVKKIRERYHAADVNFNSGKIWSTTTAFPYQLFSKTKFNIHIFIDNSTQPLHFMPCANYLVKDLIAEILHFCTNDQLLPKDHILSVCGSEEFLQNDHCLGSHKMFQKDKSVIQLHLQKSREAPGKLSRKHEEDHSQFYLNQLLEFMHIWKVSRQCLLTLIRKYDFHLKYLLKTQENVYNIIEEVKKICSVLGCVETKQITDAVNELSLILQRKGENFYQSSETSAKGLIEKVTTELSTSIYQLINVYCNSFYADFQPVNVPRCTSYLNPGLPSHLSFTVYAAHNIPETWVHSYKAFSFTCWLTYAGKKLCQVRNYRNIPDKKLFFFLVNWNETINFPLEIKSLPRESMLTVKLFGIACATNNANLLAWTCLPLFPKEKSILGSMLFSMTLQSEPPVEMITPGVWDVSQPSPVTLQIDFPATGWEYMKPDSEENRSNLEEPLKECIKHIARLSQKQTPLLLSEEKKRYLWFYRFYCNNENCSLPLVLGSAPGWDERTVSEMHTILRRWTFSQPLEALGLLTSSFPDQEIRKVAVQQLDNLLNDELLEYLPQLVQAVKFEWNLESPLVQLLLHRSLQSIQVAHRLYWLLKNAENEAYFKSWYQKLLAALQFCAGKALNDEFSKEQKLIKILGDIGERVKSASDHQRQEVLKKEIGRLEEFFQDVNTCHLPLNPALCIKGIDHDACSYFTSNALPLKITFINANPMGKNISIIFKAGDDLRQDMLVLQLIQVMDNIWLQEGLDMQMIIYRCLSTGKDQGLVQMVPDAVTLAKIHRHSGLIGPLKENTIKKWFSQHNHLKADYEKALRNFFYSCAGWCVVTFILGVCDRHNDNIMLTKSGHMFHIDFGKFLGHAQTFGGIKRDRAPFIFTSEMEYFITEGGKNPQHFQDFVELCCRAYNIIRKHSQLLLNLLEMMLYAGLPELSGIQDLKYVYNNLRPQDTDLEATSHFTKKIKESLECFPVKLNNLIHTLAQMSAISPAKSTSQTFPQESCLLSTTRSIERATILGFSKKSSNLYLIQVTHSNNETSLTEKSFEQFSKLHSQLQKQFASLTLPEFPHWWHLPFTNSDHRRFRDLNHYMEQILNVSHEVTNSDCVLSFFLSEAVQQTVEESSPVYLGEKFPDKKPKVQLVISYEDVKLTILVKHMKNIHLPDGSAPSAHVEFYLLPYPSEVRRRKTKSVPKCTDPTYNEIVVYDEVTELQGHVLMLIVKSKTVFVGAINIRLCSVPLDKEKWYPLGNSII
Sequence of Mitogen-activated protein kinase kinase kinase kinase 2 (Homo sapiens) (Q12851 whole entry): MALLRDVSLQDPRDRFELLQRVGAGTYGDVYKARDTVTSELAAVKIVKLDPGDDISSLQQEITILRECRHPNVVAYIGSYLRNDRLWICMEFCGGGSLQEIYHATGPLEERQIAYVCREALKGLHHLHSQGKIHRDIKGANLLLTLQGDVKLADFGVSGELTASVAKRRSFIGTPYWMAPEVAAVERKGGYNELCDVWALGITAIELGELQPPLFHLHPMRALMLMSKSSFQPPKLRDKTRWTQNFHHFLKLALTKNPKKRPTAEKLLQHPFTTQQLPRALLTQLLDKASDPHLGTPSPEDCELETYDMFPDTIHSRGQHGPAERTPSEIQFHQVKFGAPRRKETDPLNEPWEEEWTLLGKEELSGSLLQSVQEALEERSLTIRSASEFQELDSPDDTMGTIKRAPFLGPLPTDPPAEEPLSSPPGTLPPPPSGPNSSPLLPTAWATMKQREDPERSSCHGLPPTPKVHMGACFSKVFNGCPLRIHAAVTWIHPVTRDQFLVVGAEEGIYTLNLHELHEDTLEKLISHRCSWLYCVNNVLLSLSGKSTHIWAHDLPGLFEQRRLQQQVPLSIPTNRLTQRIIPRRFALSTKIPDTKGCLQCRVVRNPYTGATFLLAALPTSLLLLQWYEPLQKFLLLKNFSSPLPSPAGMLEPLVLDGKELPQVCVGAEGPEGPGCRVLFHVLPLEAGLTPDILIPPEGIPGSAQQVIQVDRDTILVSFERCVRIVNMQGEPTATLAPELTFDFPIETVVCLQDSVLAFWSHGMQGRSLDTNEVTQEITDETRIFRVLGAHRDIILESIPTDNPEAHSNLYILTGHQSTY
Sequence of RAC-beta serine/threonine-protein kinase (Homo sapiens) (P31751 whole entry): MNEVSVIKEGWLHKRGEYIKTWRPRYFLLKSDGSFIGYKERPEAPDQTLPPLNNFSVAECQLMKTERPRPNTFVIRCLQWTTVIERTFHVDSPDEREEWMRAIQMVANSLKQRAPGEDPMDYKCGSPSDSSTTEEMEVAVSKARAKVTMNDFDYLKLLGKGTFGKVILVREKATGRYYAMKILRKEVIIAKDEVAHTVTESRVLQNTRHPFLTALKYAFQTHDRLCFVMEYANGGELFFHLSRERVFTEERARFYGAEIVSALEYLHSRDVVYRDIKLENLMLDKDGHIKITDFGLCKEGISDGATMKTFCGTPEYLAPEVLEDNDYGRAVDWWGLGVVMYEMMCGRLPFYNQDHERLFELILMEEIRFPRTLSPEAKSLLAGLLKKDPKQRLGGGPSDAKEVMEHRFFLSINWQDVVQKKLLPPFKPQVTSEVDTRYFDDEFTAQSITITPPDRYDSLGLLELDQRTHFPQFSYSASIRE
Sequence of Serine/threonine-protein kinase Nek4 (Homo sapiens) (P51957 whole entry, looked up): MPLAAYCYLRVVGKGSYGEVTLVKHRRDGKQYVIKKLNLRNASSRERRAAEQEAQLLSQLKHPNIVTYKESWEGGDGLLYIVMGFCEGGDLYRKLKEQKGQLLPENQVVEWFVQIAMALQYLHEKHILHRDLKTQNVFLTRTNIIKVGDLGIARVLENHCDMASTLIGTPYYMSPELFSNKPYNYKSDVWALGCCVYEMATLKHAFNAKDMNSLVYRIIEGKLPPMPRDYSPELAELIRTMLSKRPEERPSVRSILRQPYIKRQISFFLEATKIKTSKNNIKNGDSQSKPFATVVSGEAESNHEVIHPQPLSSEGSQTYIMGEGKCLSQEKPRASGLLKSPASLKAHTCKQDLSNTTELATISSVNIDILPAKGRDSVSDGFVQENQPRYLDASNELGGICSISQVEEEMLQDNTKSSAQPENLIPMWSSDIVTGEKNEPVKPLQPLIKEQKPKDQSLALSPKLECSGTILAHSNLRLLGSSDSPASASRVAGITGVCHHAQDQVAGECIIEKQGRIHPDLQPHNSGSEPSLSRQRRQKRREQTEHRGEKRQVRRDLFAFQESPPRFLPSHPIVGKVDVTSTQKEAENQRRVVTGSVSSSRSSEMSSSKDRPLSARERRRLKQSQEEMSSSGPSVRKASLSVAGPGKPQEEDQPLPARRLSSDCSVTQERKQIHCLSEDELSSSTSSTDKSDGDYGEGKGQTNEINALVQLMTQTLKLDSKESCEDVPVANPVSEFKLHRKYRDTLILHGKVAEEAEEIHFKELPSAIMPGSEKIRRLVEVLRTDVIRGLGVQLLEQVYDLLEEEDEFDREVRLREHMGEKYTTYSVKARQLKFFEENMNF
Sequence of Mast/stem cell growth factor receptor Kit (Homo sapiens), P10721 [D816H] (P10721 whole entry D816H): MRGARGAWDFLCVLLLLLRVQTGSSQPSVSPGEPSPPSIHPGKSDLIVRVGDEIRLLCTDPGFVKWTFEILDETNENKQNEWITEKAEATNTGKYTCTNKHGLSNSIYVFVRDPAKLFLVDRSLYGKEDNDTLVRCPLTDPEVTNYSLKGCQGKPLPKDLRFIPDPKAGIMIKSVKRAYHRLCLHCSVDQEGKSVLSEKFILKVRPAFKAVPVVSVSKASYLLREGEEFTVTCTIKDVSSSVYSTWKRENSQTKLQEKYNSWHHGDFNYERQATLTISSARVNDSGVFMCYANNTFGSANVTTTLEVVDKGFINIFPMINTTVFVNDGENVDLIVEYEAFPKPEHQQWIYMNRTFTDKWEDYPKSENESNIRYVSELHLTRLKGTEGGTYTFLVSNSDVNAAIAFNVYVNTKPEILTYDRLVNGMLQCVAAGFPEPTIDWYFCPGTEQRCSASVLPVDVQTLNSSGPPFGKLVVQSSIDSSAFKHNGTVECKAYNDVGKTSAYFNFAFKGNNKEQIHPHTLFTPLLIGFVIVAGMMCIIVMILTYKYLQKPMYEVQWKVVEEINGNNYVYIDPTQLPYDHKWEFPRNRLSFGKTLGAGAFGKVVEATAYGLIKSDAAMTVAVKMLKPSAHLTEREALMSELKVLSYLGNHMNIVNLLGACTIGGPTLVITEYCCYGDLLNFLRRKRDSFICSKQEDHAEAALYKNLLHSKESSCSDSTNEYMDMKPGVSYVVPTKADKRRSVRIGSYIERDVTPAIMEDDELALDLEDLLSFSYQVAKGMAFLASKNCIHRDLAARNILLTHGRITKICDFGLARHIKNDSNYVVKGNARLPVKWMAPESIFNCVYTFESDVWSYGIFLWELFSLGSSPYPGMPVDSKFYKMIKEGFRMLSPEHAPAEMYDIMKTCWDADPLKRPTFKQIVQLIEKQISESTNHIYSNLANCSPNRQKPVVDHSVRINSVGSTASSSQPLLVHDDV

## CC1=C(C#N)[C@@H](c2ccc3[nH]nc(C)c3c2)C(C#N)=C(c2ccc(Cl)cc2)N1 [BAY-827]
[1]
  residual activity: 70.2%
[2]
  residual activity: 100%
[3]
  residual activity: 99.4%
[4]
  residual activity: 100%
[5]
  residual activity: 79.6%
[6]
  residual activity: 100%
[7]
  residual activity: 92.7%
[8]
  residual activity: 100%
[9]
  residual activity: 91.6%
[10]
  residual activity: 92%
[11]
  residual activity: 100%
[12]
  residual activity: 81.5%
[13]
  residual activity: 91.2%
[14]
  residual activity: 100%
[15]
  residual activity: 90.1%
[16]
  residual activity: 100%
[17]
  residual activity: 62.2%
[18]
  residual activity: 100%
[19]
  residual activity: 84.3%
[20]
  residual activity: 87.4%
[21]
  residual activity: 96.4%
[22]
  residual activity: 96.9%
[23]
  residual activity: 100%
[24]
  residual activity: 92.2%
[25]
  residual activity: 93.9%
[26]
  residual activity: 100%
[27]
  residual activity: 100%
[28]
  residual activity: 100%

## CC1=C(C#N)C(c2ccc3[nH]nc(C)c3c2)C(C#N)=C(C)N1 [BAY-474]
[29]
  inhibition: -8%
[30]
  inhibition: 0%
[31]
  inhibition: -10%
[32]
  inhibition: 6%
[33]
  inhibition: -2%
[34]
  inhibition: -7%
MKN-45
  IC90: 24 nM (active)
[35]
  inhibition: -10%
[36]
  inhibition: 9%
[37]
  inhibition: -2%
[38]
  inhibition: 10%
[39]
  inhibition: -9%
[40]
  inhibition: -2%
[41]
  inhibition: -2%
[42]
  inhibition: -9%
